Literature values as cited in US9221747B2, “Method of making fatty acid N-acylalkanolamines” (Iowa State University Research Foundation, Inc., priority 2012, dated 2015).

Conditions: at −20° C.

SMILES: CCCCCCCC/C=C\CCCCCCCC(=O)O [oleic acid]
- solubility in methanol: 4.02 g/100 g methanol

SMILES: CCCCC/C=C\C/C=C\CCCCCCCC(=O)O [linoleic acid]
- solubility in methanol: 233 g/100 g methanol
